Test results as given in PubChem BioAssay AID256 (DTP/NCI, 2004).
“And” between values parts separate entries of the source, which are not always exact repeats. Equal entries are not always repeated. Toxic doses and inconclusive results are not listed. Rule for the calls: active = survival T/C of 150% or more; inactive = T/C below 125% in these data.

System: CD2F1 mice, L1210 leukemia ip, survival T/C
Assay: NCI In Vivo Anticancer Drug Screen. Data for tumor model L1210 Leukemia (intraperitoneal) in CD2F1 (CDF1) mice
Details: endpoint: mean survival time, higher = longer survival
Method in brief: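 Tumor-bearing mice (transplanted tumor) were split into treated and vehicle control groups, and the measured endpoint of each treated group was divided by that of its vehicle controls.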

[1] = dose: 100.0 mg/kg/injection, schedule: Q04DX003 (ip), vehicle: saline with Tween-80
[2] = dose: 200.0 mg/kg/injection, schedule: Q04DX003 (ip), vehicle: saline with Tween-80
[3] = dose: 100.0 mg/kg/injection, schedule: Q04DX002 (ip), vehicle: saline with Tween-80
[4] = dose: 200.0 mg/kg/injection, schedule: Q04DX002 (ip), vehicle: saline with Tween-80
[5] = dose: 400.0 mg/kg/injection, schedule: Q04DX002 (ip), vehicle: saline with Tween-80
[6] = dose: 50.0 mg/kg/injection, schedule: Q01DX009 (ip), vehicle: saline
[7] = dose: 100.0 mg/kg/injection, schedule: Q01DX009 (ip), vehicle: saline
[8] = dose: 12.5 mg/kg/injection, schedule: Q01DX009 (ip), vehicle: saline
[9] = dose: 25.0 mg/kg/injection, schedule: Q01DX009 (ip), vehicle: saline

Measured: T/C

O=c1c(Cl)cc(Cl)cn1S(=O)(=O)c1ccc([N+](=O)[O-])cc1
inactive: dose: 100.0 mg/kg/injection, schedule: Q01DX009 (ip), vehicle: saline with Tween-80 100 % of control | [1] 102 % of control | dose: 200.0 mg/kg/injection, schedule: Q01DX009 (ip), vehicle: saline with Tween-80 102 % of control | [2] 102 % of control | dose: 400.0 mg/kg/injection, schedule: Q01DX009 (ip), vehicle: saline with Tween-80 98 % of control | dose: 400.0 mg/kg/injection, schedule: Q04DX003 (ip), vehicle: saline with Tween-80 101 % of control

CCCCCOc1ccccc1Cl
inactive: [3] 101 % of control | [4] 98 % of control

CC1(C)CC(O)C2(C)CCC3(C)C(=CCC4C5(C)CCC(O)C(C)(CO)C5CCC43C)C2C1 (stereo not given) (tested in a mixture with another compound)
inactive: [3] 102 % of control | [4] 98 % of control | [5] 107 % of control

NCCNCCNCCNCCN (tested in a mixture with another compound)
inactive: [6] 104 % of control | [7] 111 % of control | [1] 110 % of control | [2] 105 % of control

c1ccc2[nH]c(CN3CCCCC3)cc2c1
inactive: dose: 12.5 mg/kg/injection, schedule: Q01DX009 (ip), vehicle: saline with Tween-80 106 % of control | dose: 25.0 mg/kg/injection, schedule: Q01DX009 (ip), vehicle: saline with Tween-80 100 % of control | dose: 50.0 mg/kg/injection, schedule: Q01DX009 (ip), vehicle: saline with Tween-80 90 % of control

C[N+](C)(C)c1ncnc2nc[nH]c12
inactive: [8] 98 % of control and 108 % of control | [9] 106 % of control and 108 % of control | [6] 97 % of control and 112 % of control | [7] 120 % of control and 121 % of control

NNC(=O)CCC(=O)NN
inactive: dose: 6.25 mg/kg/injection, schedule: Q01DX009 (ip), vehicle: saline 111 % of control | [8] 103 % of control | [9] 97 % of control | dose: 100.0 mg/kg/injection, schedule: Q04DX003 (ip), vehicle: saline 98 % of control | dose: 200.0 mg/kg/injection, schedule: Q04DX003 (ip), vehicle: saline 113 % of control | dose: 400.0 mg/kg/injection, schedule: Q04DX003 (ip), vehicle: saline 101 % of control

Cc1cc(=O)c(C#N)c(-c2ccccc2)[nH]1
inactive: [3] 96 % of control | [4] 100 % of control | [5] 87 % of control

O=C(CCOP(=O)(N(CCCl)CCCl)N1CC1)OCc1ccccc1 (stereo not given)
inactive: dose: 25.0 mg/kg/injection, schedule: Q01DX009 (ip), vehicle: Klucel (hydroxypropylcellulose) (HPC) 97 % of control | dose: 50.0 mg/kg/injection, schedule: Q01DX009 (ip), vehicle: Klucel (hydroxypropylcellulose) (HPC) 94 % of control | dose: 100.0 mg/kg/injection, schedule: Q01DX009 (ip), vehicle: Klucel (hydroxypropylcellulose) (HPC) 97 % of control | dose: 125.0 mg/kg/injection, schedule: Q01DX001 (ip), vehicle: Klucel (hydroxypropylcellulose) (HPC) 98 % of control | dose: 200.0 mg/kg/injection, schedule: Q01DX009 (ip), vehicle: Klucel (hydroxypropylcellulose) (HPC) 97 % of control | dose: 250.0 mg/kg/injection, schedule: Q01DX001 (ip), vehicle: Klucel (hydroxypropylcellulose) (HPC) 107 % of control | dose: 400.0 mg/kg/injection, schedule: Q01DX009 (ip), vehicle: Klucel (hydroxypropylcellulose) (HPC) 107 % of control | dose: 500.0 mg/kg/injection, schedule: Q01DX001 (ip), vehicle: Klucel (hydroxypropylcellulose) (HPC) 103 % of control | dose: 1000.0 mg/kg/injection, schedule: Q01DX001 (ip), vehicle: Klucel (hydroxypropylcellulose) (HPC) 95 % of control

Nc1c(C(=O)O)cnn1CCO
inactive: dose: 50.0 mg/kg/injection, schedule: Q04DX003 (ip), vehicle: water 94 % of control | dose: 100.0 mg/kg/injection, schedule: Q04DX003 (ip), vehicle: water 100 % of control | dose: 200.0 mg/kg/injection, schedule: Q04DX003 (ip), vehicle: water 100 % of control | dose: 400.0 mg/kg/injection, schedule: Q04DX003 (ip), vehicle: water 97 % of control and 100 % of control | dose: 700.0 mg/kg/injection, schedule: Q04DX003 (ip), vehicle: water 89 % of control
